Measurements reported in US10822334B2, “ErbB receptor inhibitors” (Dizal (Jiangsu) Pharmaceutical Co., Ltd., priority 2018, dated 2020).

Legend:
Type in all cases: cell-based
[1] = test system: BT474 cells; test: BT474 anti-proliferation assay (MTS); settings: Homo sapiens, BT-474; BT474 cells, 72 h, MTS; read-out: HER2 WT Amplification BT474 GI50
Procedure: A compound's activity of selective inhibition for HER2 wild type amplification can be evaluated with BT474 cell line (ATCC® HTB-20™). The cell line expressed phosphorylated HER2 protein and its proliferation depended on the amplified gene, which could be used for in vitro PD and anti-proliferation assays.
The anti-proliferation activity of compounds were determined as following procedure: The BT474 cells were sorted in 384 well plates with the DMEM medium containing 10% FBS and […] overnight and then dosed with tested compounds at a series of concentrations (30 μM, 10 μM, 3 μM, 0.3 μM, 0.1 μM, 0.03 μM, 0.01 μM, 0.001 μM) on next day. Meanwhile, another cells plate was prepared for measuring GO value on next day. The dosed plates were incubate for 72h at 37° C. with 5% CO2 and the number of viable cells in each well of GO or dosed plates were measured by MTS (CellTiter 96® AQueous One Solution Cell Proliferation Assay, Promega) endpoint. This assay is a colorimetric method for determining the number viable cells in the proliferation assay. Detection reagents (5 μl) was dispensed into per well, and the plates were incubated for 2 hrs at room temperature. Then, absorbance at 490 nm and 650 nm (reference wavelength) in each well was measured using the safile II. (Tecan). The percentage of proliferation was got from the formula: % Proliferation=100×(G3 value of sample well-Go value)/(G3 value of DMSO control-Go value). The GI50 values were further calculated as the compounds concentration required for 50% Proliferation in best-fit curves using Genedata Screener® software.

[2] = target: WT HER2 (Homo sapiens (Human), UniProt P04626); test: HER2 (Y1248) phosphorylation in BT474 cells (MSD); settings: p-HER2 (Y1248)/total HER2, 4 h, read-out: HER2 WT Amplification BT474 IC50
Procedure: The plates were incubated for 4 h at 37° C. with 5% CO2 and then the HER2 (Y1248) phosphorylation level of cells in each well were measured with MSD Kit (Phospho-ErbB2 ([…]) Assay Whole Cell Lysate Kit: Cat # […]-3). The assay is a electrochemiluminescent method (MESO SCALE DISCOVERY) for determining both phosphorylated and total HER2 of cells with an MSD SECTOR® Imager and then the ratio of p-HER2/total HER2 can be generated by the machine.

[3] = target: WT EGFR (Homo sapiens (Human), UniProt P00533); test: EGFR (Y1068) phosphorylation in NCI-H838 cells (MSD); settings: p-EGFR (Y1068)/total EGFR, 4 h, hEGF stimulation
WT EGFR, sequence (P00533 25-1210): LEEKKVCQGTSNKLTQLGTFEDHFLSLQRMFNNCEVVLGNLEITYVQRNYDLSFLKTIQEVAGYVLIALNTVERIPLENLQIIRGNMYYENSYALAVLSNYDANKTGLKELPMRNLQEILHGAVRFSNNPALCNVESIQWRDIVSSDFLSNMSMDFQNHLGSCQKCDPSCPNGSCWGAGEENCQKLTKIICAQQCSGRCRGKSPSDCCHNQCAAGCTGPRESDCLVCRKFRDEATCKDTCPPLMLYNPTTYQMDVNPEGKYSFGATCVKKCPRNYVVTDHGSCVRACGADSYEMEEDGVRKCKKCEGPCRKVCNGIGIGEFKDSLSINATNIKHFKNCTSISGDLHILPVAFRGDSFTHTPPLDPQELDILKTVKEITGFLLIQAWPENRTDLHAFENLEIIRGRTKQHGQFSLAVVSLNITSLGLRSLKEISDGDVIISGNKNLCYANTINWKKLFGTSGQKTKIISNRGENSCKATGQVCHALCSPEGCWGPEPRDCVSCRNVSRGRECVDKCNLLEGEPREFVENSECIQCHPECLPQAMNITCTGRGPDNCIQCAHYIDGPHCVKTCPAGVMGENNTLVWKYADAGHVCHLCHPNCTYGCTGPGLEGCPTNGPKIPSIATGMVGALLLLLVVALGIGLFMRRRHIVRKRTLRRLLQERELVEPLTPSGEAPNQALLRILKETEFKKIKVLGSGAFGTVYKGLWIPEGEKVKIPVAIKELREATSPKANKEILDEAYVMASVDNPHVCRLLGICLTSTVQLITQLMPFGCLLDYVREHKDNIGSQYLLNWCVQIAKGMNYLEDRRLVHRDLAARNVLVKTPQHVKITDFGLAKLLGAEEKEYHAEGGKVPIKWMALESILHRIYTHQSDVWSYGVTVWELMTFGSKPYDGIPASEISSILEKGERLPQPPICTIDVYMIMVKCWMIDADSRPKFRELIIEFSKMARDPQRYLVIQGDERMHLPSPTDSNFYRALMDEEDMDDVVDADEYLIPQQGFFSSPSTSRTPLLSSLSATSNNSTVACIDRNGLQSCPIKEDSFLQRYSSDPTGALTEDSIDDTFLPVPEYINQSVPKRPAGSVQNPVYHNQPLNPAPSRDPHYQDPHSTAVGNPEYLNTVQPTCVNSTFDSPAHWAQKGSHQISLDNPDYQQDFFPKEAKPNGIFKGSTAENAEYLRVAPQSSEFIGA

WT HER2, sequence (P04626 23-1255): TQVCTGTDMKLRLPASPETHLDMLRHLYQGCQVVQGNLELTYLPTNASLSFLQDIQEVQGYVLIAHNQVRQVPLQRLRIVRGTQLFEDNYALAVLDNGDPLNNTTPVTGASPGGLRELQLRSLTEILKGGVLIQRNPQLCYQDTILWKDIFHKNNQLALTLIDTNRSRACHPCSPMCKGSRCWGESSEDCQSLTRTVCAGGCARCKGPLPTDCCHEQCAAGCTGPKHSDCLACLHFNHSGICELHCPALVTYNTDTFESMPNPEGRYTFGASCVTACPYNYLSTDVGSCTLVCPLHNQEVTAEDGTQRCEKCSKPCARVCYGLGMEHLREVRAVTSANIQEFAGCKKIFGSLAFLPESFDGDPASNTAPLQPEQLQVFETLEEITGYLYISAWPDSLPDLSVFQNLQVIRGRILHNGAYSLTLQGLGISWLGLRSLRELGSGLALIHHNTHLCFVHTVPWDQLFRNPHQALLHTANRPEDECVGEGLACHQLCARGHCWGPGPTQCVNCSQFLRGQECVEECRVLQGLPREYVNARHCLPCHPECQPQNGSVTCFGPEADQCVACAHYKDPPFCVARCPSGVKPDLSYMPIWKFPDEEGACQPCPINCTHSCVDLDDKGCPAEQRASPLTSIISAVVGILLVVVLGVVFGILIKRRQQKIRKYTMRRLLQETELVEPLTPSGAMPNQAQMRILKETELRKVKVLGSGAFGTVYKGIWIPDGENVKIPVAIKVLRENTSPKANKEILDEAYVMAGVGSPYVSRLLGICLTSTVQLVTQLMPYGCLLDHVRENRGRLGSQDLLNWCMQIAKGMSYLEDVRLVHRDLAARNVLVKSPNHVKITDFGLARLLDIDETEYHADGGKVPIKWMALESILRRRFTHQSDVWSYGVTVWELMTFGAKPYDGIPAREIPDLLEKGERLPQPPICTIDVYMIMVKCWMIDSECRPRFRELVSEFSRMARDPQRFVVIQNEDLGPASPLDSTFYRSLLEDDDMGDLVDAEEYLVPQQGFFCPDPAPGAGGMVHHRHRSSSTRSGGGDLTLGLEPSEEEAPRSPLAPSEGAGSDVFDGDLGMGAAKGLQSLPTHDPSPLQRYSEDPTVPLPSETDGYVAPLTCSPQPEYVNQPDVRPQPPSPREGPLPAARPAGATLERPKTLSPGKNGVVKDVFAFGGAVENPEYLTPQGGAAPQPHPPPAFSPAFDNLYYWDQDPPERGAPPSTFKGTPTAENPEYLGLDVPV

GI50 [1] [nM]	IC50 [2] [nM]	IC50 [3] [nM]	SMILES
12.1 ± 2.78	–	–	CS(=O)(=O)CCNCc1ccc(-c2ccc3ncnc(Nc4ccc(OCc5cccc(F)c5)c(Cl)c4)c3c2)o1 [Lapatinib, reference compound]
7.47 ± 2.99	6.92	1800	COc1cc(OC2CCN(C)CC2(F)F)c2c(Nc3ccc(Oc4ccn5ccnc5c4)c(C)c3)ncnc2c1 (single isomer, unassigned) [Compound 8, 5-((3,3-difluoro-1-methylpiperidin-4-yl)oxy)-N-(4-(imidazo[1,2-a]pyridin-7-yloxy)-3-methylphenyl)-7-methoxyquinazolin-4-amine]
11.7	6.17	> 10000	COc1ccc2ncnc(Nc3ccc(Oc4cc5ncnn5cc4F)c(C)c3)c2c1OC1CCN(C)CC1(F)F (single isomer, unassigned) [Compound 23, 5-((3,3-difluoro-1-methylpiperidin-4-yl)oxy)-N-(4-((6-fluoro-[1,2,4]triazolo[1,5-a]pyridin-7-yl)oxy)-3-methylphenyl)-6-methoxyquinazolin-4-amine]
15.1 ± 8.19	6.83	> 3000	COc1ccc2ncnc(Nc3ccc(Oc4ccn5ncnc5c4)c(C)c3)c2c1OC1CN(C)CCC1(F)F (single isomer, unassigned) [Compound 5, N-(4-([1,2,4]triazolo[1,5-a]pyridin-7-yloxy)-3-methylphenyl)-5-((4,4-difluoro-1-methylpiperidin-3-yl)oxy)-6-methoxyquinazolin-4-amine]
18.6 ± 6.51	11.6 ± 10.4	2920 ± 2320	COc1cc(OC2CCN(C)CC2(F)F)c2c(Nc3ccc(Oc4cc5ncnn5cc4F)c(C)c3)ncnc2c1 (single isomer, unassigned) [Compound 22, 5-((3,3-difluoro-1-methylpiperidin-4-yl)oxy)-N-(4-((6-fluoro-[1,2,4]triazolo[1,5-a]pyridin-7-yl)oxy)-3-methylphenyl)-7-methoxyquinazolin-4-amine]
27.3 ± 14.5	16.2	1030	Cc1cc(Nc2ncnc3cccc(OC4CCN(C)CC4(F)F)c23)ccc1Oc1ccc2ccnn2c1 (single isomer, unassigned) [Compound 9, 5-((3,3-difluoro-1-methylpiperidin-4-yl)oxy)-N-(3-methyl-4-(pyrazolo[1,5-a]pyridin-6-yloxy)phenyl)quinazolin-4-amine]
4.33 ± 0.63	7.96	> 3000	COc1ccc2ncnc(Nc3ccc(Oc4ccn5ncnc5c4)c(C)c3)c2c1OC[C@H]1CC(F)(F)CCN1C [Compound 4, (R)-N-(4-([1,2,4]triazolo[1,5-a]pyridin-7-yloxy)-3-methylphenyl)-5-((4,4-difluoro-1-methylpiperidin-2-yl)methoxy)-6-methoxyquinazolin-4-amine]
–	2.55	> 10000	Cc1cc(Nc2ncnc3cccc(OC4CCNC(C(F)F)C4)c23)ccc1Oc1ccn2ccnc2c1 (racemic) [Compound 15, (±)-(5-(((2S,4S)-2-(difluoromethyl)piperidin-4-yl)oxy)-N-(4-(imidazo[1,2-a]pyridin-7-yloxy)-3-methylphenyl)quinazolin-4-amine]
44.7 ± 4.2	26	> 3000	COc1ccc2ncnc(Nc3ccc(Oc4ccn5ncnc5c4)c(C)c3)c2c1OC1CCN(C)CC1F (single isomer, unassigned) [Compound 3, N-(4-([1,2,4]triazolo[1,5-a]pyridin-7-yloxy)-3-methylphenyl)-5-((3-fluoro-1-methylpiperidin-4-yl)oxy)-6-methoxyquinazolin-4-amine]
9.02	7.56	> 3000	CCN1CCC(Oc2cccc3ncnc(Nc4ccc(Oc5ccn6ncnc6c5)c(C)c4)c23)C(F)(F)C1 (single isomer, unassigned) [Compound 12]
24.6 ± 4.85	–	–	Cc1cc(Nc2ncnc3cccc(OC4CCN(C)CC4F)c23)ccc1Oc1ccn2ccnc2c1 (single isomer, unassigned) [Compound 11]
19 ± 2.46	7.86	> 3000	Cc1cc(Nc2ncnc3cc(N)cc(OC4CCN(C)CC4(F)F)c23)ccc1Oc1ccn2ncnc2c1 (single isomer, unassigned) [Compound 10, N^4-(4-([1,2,4]triazolo[1,5-a]pyridin-7-yloxy)-3-methylphenyl)-5-((3,3-difluoro-1-methylpiperidin-4-yl)oxy)quinazoline-4,7-diamine]
8.36 ± 0.15	5.57	> 3000	Cc1cc(Nc2ncnc3cccc(OC4CCN(C)CC4(F)F)c23)ccc1Oc1ccc2c(c1)ncn2C (single isomer, unassigned) [Compound 7, 5-((3,3-difluoro-1-methylpiperidin-4-yl)oxy)-N-(3-methyl-4-((1-methyl-1H-benzo[d]imidazol-5-yl)oxy)phenyl)quinazolin-4-amine]
15.9 ± 6.57	61.3 ± 11.2	–	Cc1cc(Nc2ncnc3cccc(OC4CCN(C)CCC4(F)F)c23)ccc1Oc1ccn2ccnc2c1 (single isomer, unassigned) [Compound 21, 5-((5,5-difluoro-1-methylazepan-4-yl)oxy)-N-(4-(imidazo[1,2-a]pyridin-7-yloxy)-3-methylphenyl)quinazolin-4-amine]
8.58 ± 3.55	12.6	515	Cc1cc(Nc2ncnc3cc(OC4CCOC4)cc(OC4CCN(C)CC4(F)F)c23)ccc1Oc1ccn2ncnc2c1 (single isomer, unassigned) [Compound 18, N-(4-([1,2,4]triazolo[1,5-a]pyridin-7-yloxy)-3-methylphenyl)-5-((3,3-difluoro-1-methylpiperidin-4-yl)oxy)-7-((tetrahydrofuran-3-yl)oxy)quinazolin-4-amine]
10.8 ± 4.13	2	> 3000	Cc1cc(Nc2ncnc3ccc(NC4=NC(C)(C)CO4)cc23)ccc1Oc1ccn2ncnc2c1 [ONT380, reference compound]
14.1	5.84	> 10000	[2H]C([2H])([2H])Oc1ccc2ncnc(Nc3ccc(Oc4ccn5ncnc5c4)c(C)c3)c2c1OC1CCN(C([2H])([2H])[2H])CC1(F)F (racemic) [Compound 26, (±)-N-(4-([1,2,4]triazolo[1,5-a]pyridin-7-yloxy)-3-methylphenyl)-5-((3,3-difluoro-1-(methyl-d3)piperidin-4-yl)oxy)-6-(methoxy-d3)quinazolin-4-amine]

SMILES	GI50 [1] [nM]	IC50 [2] [nM]	IC50 [3] [nM]
Cc1cc(Nc2ncnc3cccc(O[C@H]4C[C@H]5CC[C@@H](C4)N5CC(F)F)c23)ccc1Oc1ccn2ncnc2c1 [Compound 2, N-(4-([1,2,4]triazolo[1,5-a]pyridin-7-yloxy)-3-methylphenyl)-5-(((1R,3r,5S)-8-(2,2-difluoroethyl)-8-azabicyclo[3.2.1]octan-3-yl)oxy)quinazolin-4-amine]	19 ± 1.4	6.17	–
Cc1cc(Nc2ncnc3cccc(OC45CCN(CC4)CC5)c23)ccc1Oc1ccn2ccnc2c1 [Compound 13, N-(4-(imidazo[1,2-a]pyridin-7-yloxy)-3-methylphenyl)-5-(quinuclidin-4-yloxy)quinazolin-4-amine]	49.8 ± 6.87	21.8	> 3000
